From ChEMBL document CHEMBL5614376, “Discovery of MT-1207: A Novel, Potent Multitarget Inhibitor as a Promising Clinical Candidate for the Treatment of Hypertension” (J Med Chem, 2024)
Activity calls are given as the source filed them. No cut-off for these calls is given here.

What was measured:
[1] = Tmax in Sprague-Dawley rat at 3 mg/kg, po measured for 24 hrs by UPLC/MS/MS analysis; assay type: ADME, organism-based; settings: in vivo
Rattus norvegicus [2] = assay: Effect on postural hypotension in Sprague-Dawley rat assessed as change in systolic blood pressure at 10 mg/kg, po treated for >30 mins followed by induction of postural hypotension measured 20 secs after postural change (reference value: 129 +/- 11 mmHg); assay type: functional; settings: time > 30.33 min, 0.5055 h
[3] = Plasma protein binding in Cynomolgus monkey at 1 uM incubated for 30 mins; assay type: ADME, cell-free, Macaca fascicularis; settings: read-out: PPB (converted)
Rattus norvegicus [4] = assay: Effect on postural hypotension in Sprague-Dawley rat assessed as change in systolic blood pressure at 10 mg/kg, po treated for >30 mins followed by induction of postural hypotension measured 5 secs after postural change (reference value: 126 +/- 12 mmHg); assay type: functional; settings: time > 30.08 min, 0.5013 h
[5] = Apparent oral clearance in Sprague-Dawley rat at 1 mg/kg, iv measured for 24 hrs by UPLC/MS/MS analysis; assay type: ADME, organism-based; settings: in vivo
[6] = Oral bioavailability in Sprague-Dawley rat at 1 mg/kg measured for 24 hrs by UPLC/MS/MS analysis; assay type: ADME, organism-based; settings: in vivo
[7] = Half life in Sprague-Dawley rat at 9 mg/kg, po measured for 24 hrs by UPLC/MS/MS analysis; assay type: ADME, organism-based; settings: in vivo
[8] = Plasma protein binding in Sprague-Dawley rat at 10 uM incubated for 30 mins; assay type: ADME, cell-free; settings: read-out: PPB (converted)
[9] = Cmax in male Sprague-Dawley rat at 30 mg/kg, po measured on day 1 by UP/LC/MS/MS analysis; assay type: ADME, organism-based; settings: in vivo, time 1 day
[10] = Metabolic stability in Beagle dog liver microsomes assessed as drug metabolism at 10 umol/L incubated upto 120 mins in presence of NADPH by LC-MS/MS analysis; assay type: ADME, Canis lupus familiaris, Microsome; settings: 2 h, 10 µM, dose 10 µmol/L
[11] = Metabolic stability in Beagle dog liver microsomes assessed as drug elimination at 10 umol/L incubated for 5 mins in presence of NADPH by LC-MS/MS analysis; assay type: ADME, Canis lupus familiaris, Microsome; settings: 10 µM, dose 10 µmol/L
[12] = Acute toxicity in Sprague-Dawley rat assessed as change in body weight at 250 to 1000 mg/kg, po single administration measured for 14 days; assay type: organism-based; settings: in vivo, 336 h, dose 250-1000 mg/kg, time 14 day
[13] = Tmax in male Sprague-Dawley rat at 30 mg/kg, po measured on day 1 by UP/LC/MS/MS analysis; assay type: ADME, organism-based; settings: in vivo, time 1 day
[14] = Apparent volume of distribution during terminal phase in Sprague-Dawley rat at 1 mg/kg, po measured for 24 hrs by UPLC/MS/MS analysis; assay type: ADME, organism-based; settings: in vivo, read-out: Vz/F
[15] = target: 5-hydroxytryptamine receptor 2A (Homo sapiens, UniProt P28223); assay: Displacement of [3H]Ketanserin from recombinant human 5-HT2A receptor extracted from CHO cell membrane at 10 nM incubated for 60 mins by radioligand binding assay relative to control; assay type: cell membranes; settings: filed as antagonist
[16] = Metabolic stability in macaque liver microsomes assessed as drug metabolism at 10 umol/L incubated upto 120 mins in presence of NADPH by LC-MS/MS analysis; assay type: ADME, Microsome; settings: macaca, 2 h, 10 µM, dose 10 µmol/L
[17] = Cmax in male Sprague-Dawley rat at 100 mg/kg, po qd treated for 13 weeks consecutively measured after recovery period on day 91 by UP/LC/MS/MS analysis; assay type: ADME, organism-based; settings: in vivo, time 91 day
[18] = Toxicity in female Sprague-Dawley rat assessed as reduction in body weight at 100 mg/kg, po qd treated for 4 days consecutively; assay type: organism-based; design: scale not given: the % may be the effect or the level left; settings: in vivo, 96 h, time 4 day
Rattus norvegicus [19] = assay: Effect on postural hypotension in Sprague-Dawley rat assessed as change in systolic blood pressure at 2.5 mg/kg, po treated for >30 mins followed by induction of postural hypotension measured 3 secs after postural change (reference value: 124 +/- 10 mmHg); assay type: functional; settings: time > 30.05 min, 0.5008 h
[20] = AUC (0 to t) in Sprague-Dawley rat at 3 mg/kg, po measured for 24 hrs by UPLC/MS/MS analysis; assay type: ADME, organism-based; settings: in vivo
[21] = Plasma protein binding in human at 1 uM incubated for 30 mins; assay type: ADME, cell-free; settings: read-out: PPB (converted)
[22] = Cmax in female Sprague-Dawley rat at 100 mg/kg, po measured on day 1 by UP/LC/MS/MS analysis; assay type: ADME, organism-based; settings: in vivo, time 1 day
Rattus norvegicus [23] = assay: Effect on postural hypotension in Sprague-Dawley rat assessed as change in systolic blood pressure at 5 mg/kg, po treated for >30 mins followed by induction of postural hypotension measured 20 secs after postural change (reference value: 129 +/- 11 mmHg); assay type: functional; settings: time > 30.33 min, 0.5055 h
[24] = Plasma protein binding in Cynomolgus monkey at 0.1 uM incubated for 30 mins; assay type: ADME, cell-free, Macaca fascicularis; settings: read-out: PPB (converted)
[25] = Cmax in female Sprague-Dawley rat at 10 mg/kg, po qd treated for 13 weeks consecutively measured after recovery period on day 91 by UP/LC/MS/MS analysis; assay type: ADME, organism-based; settings: in vivo, time 91 day
Rattus norvegicus [26] = assay: Effect on postural hypotension in Sprague-Dawley rat assessed as change in systolic blood pressure at 2.5 mg/kg, po treated for >30 mins followed by induction of postural hypotension measured 5 secs after postural change (reference value: 126 +/- 12 mmHg); assay type: functional; settings: time > 30.08 min, 0.5013 h
Rattus norvegicus [27] = assay: Effect on serum K+ level in 2K2C renovascular hypertensive Sprague-Dawley rat model at 10 mg/kg, po measured after 9 weeks by biochemical analysis; assay type: functional, organism-based
[28] = Tmax in male Sprague-Dawley rat at 10 mg/kg, po measured on day 1 by UP/LC/MS/MS analysis; assay type: ADME, organism-based; settings: in vivo, time 1 day
[29] = Tmax in male Sprague-Dawley rat at 10 mg/kg, po qd treated for 13 weeks consecutively measured after recovery period on day 91 by UP/LC/MS/MS analysis; assay type: ADME, organism-based; settings: in vivo, time 91 day
Rattus norvegicus [30] = assay: Effect on postural hypotension in Sprague-Dawley rat assessed as change in systolic blood pressure at 10 mg/kg, po treated for >30 mins followed by induction of postural hypotension measured immediately after postural change (reference value: 131 +/- 9 mmHg); assay type: functional; settings: 0.5 h
[31] = Half life in Sprague-Dawley rat at 3 mg/kg, po measured for 24 hrs by UPLC/MS/MS analysis; assay type: ADME, organism-based; settings: in vivo
[32] = Metabolic stability in macaque plasma assessed as enzymatic hydrolysis at 50 to 10000 ng/ml incubated upto 120 mins; assay type: ADME, cell-free; settings: macaca, 2 h, dose 50-10000 ng/ml
[33] = Metabolic stability in human plasma assessed as enzymatic hydrolysis at 50 to 10000 ng/ml incubated upto 120 mins; assay type: ADME, cell-free; settings: 2 h, dose 50-10000 ng/ml
[34] = Metabolic stability in rat liver microsomes assessed as compound remaining at 10 umol/L incubated upto 120 mins in presence of NADPH by LC-MS/MS analysis; assay type: ADME, Microsome; settings: dose 10 µmol/L, read-out: Stability
[35] = Metabolic stability in macaque liver microsomes assessed as compound remaining at 10 umol/L incubated upto 120 mins in presence of NADPH by LC-MS/MS analysis; assay type: ADME, Microsome; settings: macaca, dose 10 µmol/L, read-out: Stability
[36] = Acute toxicity in Sprague-Dawley rat with single oral administration measured for 14 days; settings: in vivo, time 14 day

5-hydroxytryptamine receptor 2A, sequence (P28223 whole entry): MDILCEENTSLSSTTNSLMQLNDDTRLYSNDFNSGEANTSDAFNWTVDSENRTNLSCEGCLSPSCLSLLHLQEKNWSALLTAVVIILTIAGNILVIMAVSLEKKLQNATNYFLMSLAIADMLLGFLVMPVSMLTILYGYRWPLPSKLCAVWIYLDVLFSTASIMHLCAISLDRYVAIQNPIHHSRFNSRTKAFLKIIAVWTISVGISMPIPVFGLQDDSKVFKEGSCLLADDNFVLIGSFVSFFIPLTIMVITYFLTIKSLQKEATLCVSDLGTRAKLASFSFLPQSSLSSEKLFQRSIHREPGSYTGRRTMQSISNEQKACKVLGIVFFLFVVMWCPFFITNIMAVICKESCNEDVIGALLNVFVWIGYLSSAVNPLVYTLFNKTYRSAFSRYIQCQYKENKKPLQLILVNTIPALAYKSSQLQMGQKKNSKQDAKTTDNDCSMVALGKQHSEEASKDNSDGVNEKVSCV

## Cl.c1ccc2c(c1)nnn2CCCCN1CCN(c2nsc3ccccc23)CC1
[1]
  Tmax: 2 h
Rattus norvegicus [2]
  Activity: 85 mmHg
[3]
  fraction unbound at 0.5 h, 1 µM: 0.006
Rattus norvegicus [4]
  Activity: 81 mmHg
[5]
  CL/F: 25 L/h
[6]
  bioavailability: 11.7%
[7]
  half-life: 113 min
[8]
  fraction unbound at 0.5 h, 10 µM: 0.017
[9]
  Cmax: 109 ng/mL
[10]
  Drug metabolism: Metabolite_Detected
[11]
  Drug excretion: Active
[12]
  Activity: Non-Toxic
[13]
  Tmax: 1 h
[14]
  Vd/F: 51.5 L
[15]
  inhibition: 96%
[16]
  Drug metabolism: Metabolite_Detected
[17]
  Cmax: 538 ng/mL
[18]
  Activity: ~ 3.3%
Rattus norvegicus [19]
  Activity: 90 mmHg
[20]
  AUC(0-t) at 24 h: 421 ng·h/mL
[21]
  fraction unbound at 0.5 h, 1 µM: 0.004
[22]
  Cmax: 1080 ng/mL
Rattus norvegicus [23]
  Activity: 83 mmHg
[24]
  fraction unbound at 0.5 h, 0.1 µM: 0.015
[25]
  Cmax: 140 ng/mL
Rattus norvegicus [26]
  Activity: 89 mmHg
Rattus norvegicus [27]
  Activity: Active
[28]
  Tmax: 1 h
[29]
  Tmax: 1.3 h
Rattus norvegicus [30]
  Activity: 89 mmHg
[31]
  half-life: 129 min
[32]
  Stability: Stable
[33]
  Stability: Stable
[34]
  remaining at 2 h, 10 µM: 21.1%
[35]
  remaining at 2 h, 10 µM: 1.5%
[36]
  MTD at 336 h: > 1000 mg/kg
